How the values were obtained:
Type in all cases: in vivo, rat
MIA-induced OA rats [1] = assay: von Frey test, single administration to MIA-induced OA rats; conditions: for Recovery rate of 50% reaction threshold value (%): 1 hour after administration of test drug
Method: There were conducted the following experiments for testing the analgesic action of the analgesic of the present invention using the osteoarthritis (OA) rats induced by sodium monoiodoacetate (MIA) which were model animals for OA.
A 50% reaction threshold value to the mechanical stimulus of male Wistar rats of six weeks age was measured (the measuring method will be mentioned later) and a normal control group was selected. MIA prepared by saline was administered in a single dose of 0.3 mg/50 μL into right knee joint of the rats except the normal control group while 50 μL of saline was administered into left knee joint whereupon the MIA-induced OA rats were prepared. To the normal control group, 50 μL of saline was administered into the joints of both knees.
(§1) With regard to the male Wistar rats of six weeks age used as experimental animals except the normal control group, their 50% reaction threshold values to the mechanical stimulus (the measuring method will be mentioned later) and body weights were measured after 24 days from the administration of MIA mentioned in (1) and then 4 groups each comprising six rats [a normal control group, an onset control group, a test drug-administered group and a loxoprofen sodium hydrate (LOX)-administered group (a positive control)] were organized.
A test drug solution (0.1 mg/mL) using the compound 4 as a test drug and a LOX suspension (1 mg/mL) were prepared using a phosphate buffered saline (PBS) containing 0.1 vol % of dimethyl sulfoxide (DMSO) and a 0.5 w/v % aqueous solution of carboxymethyl cellulose, respectively.
(§2) Immediately after the grouping (after 24 days from the administration of MIA), a test drug solution was intraperitoneally administered in a single dose of 0.5 mg/kg to a test drug-administered group while, a LOX suspension was orally administered in a single dose of 5 mg/kg to a LOX-administered group. Meanwhile, to the normal control group and the onset control group, PBS containing 0.1 vol % of DMSO was intraperitoneally administered in a single dose.
The four groups of rats of the above (2) were placed in a transparent acrylic cage with a wire-meshed floor and habituated for about three minutes and the 50% reaction threshold values to the mechanical stimulus were measured after 1, 3, 5 and 24 hours from the administration of a test drug.
The measurement was conducted using von Frey filaments (manufactured by North Coast Medical Inc.) in accordance with the methods of Chaplan, et al. (Journal of Neuroscience Methods, vol. 53, no. 1, pages 55 to 63, 1994) and Dixon, et al. (Annual Review of Pharmacology and Toxicology; vol. 20, pages 441 to 462, 1980). […] The case where the rat escaped at the instance of removing the filament was also called positive. When the positive reaction was noted, stimulus was conducted similarly using a filament of one rank weaker while, when no reaction was noted, stimulus was conducted similarly using a filament of one rank stronger and the point when the reaction changed from negative to positive or from positive to negative was called the first two reactions. After that, stimulus was conducted for continuous four times by the same up-down method. A 50% reaction threshold value to the mechanical stimulus was measured using the reaction to the six stimuli in total and then (mean value)±(standard error) for each group was calculated. Incidentally, when stimulus reached by that of 15.0 g without positive reaction or, when positive reaction continued to 0.4 g, then 15.0 g or 0.25 g was adopted as each threshold value, respectively.
The test for significant difference was performed using the test in two groups (Student's t-test or Welch test) or Wilcoxon test between the normal control group and the onset control group, between the onset control group and the test drug-administered group, between the onset control group and the LOX-administered group and between the test drug-administered group and the LOX-administered group. […]

MIA-induced OA rats [2] = assay: von Frey test, repeated administration to MIA-induced OA rats; conditions: for Recovery rate of 50% reaction threshold value (%): repeated administration, 1 hour after administration of test drug
Method: Selection of the normal control group and preparation of MIA-induced OA rats were conducted in the same manner as in the above 1.(1).
as §1, with “stimulus, weight bearing rate to a MIA-non-administered hind paw” for “stimulus”, “27” for “24”, “four” for “4”, “LOX-administered” for “loxoprofen sodium hydrate (LOX)-administered”
A test drug solution and an LOX suspension were prepared in the same manner as in the above 1.(2).
as §2, with “During eight days from immediately” for “Immediately”, “27 to 34” for “24”, “repeated” for “a single”, “repeatedly.” for “in a single dose.”
In the same manner as in the above 1.(4), the 50% reaction threshold values to the mechanical stimulus were measured after 1, 3, 5 and 24 hour(s) from the final administration of a test drug. Mean value±standard error for each group was calculated and the test for significant difference was done in the same manner as in the above 1.(4).
The analgesic of the present invention was repeatedly administered to the MIA-induced OA rat and a von Frey test was conducted in the same manner as in the above test 1.(4) whereupon each 50% reaction threshold value was measured. With regard to the 50% reaction threshold value after 1 hour from the administration of a test drug, a recovery rate (%) of the 50% reaction threshold value was calculated in the same manner as in the above test 1.(4).

MIA-induced OA rats [3] = assay: Weight bearing rate to MIA-non-administered hind paw (dual channel weight averager), repeated administration
Method: as §2, with “During eight days from immediately” for “Immediately”, “27 to 34” for “24”, “repeated” for “a single”, “repeatedly.” for “in a single dose.”
One hind paw of a rat where OA was induced by administration of MIA develops a pain symptom. Therefore, a body weight bearing to a painless hind paw to which no MIA was administered increases in a rat for avoiding the application of body weight to the hind paw after administration of MIA. […] Using this weight bearing rate to the MIA-non-administered hind paw as an index, the analgesic action of the analgesic of the present invention was measured.
The weight bearing rate to the MIA-non-administered hind paw was determined by the following formula after measuring the weight distribution to right and left hind paws of a rat using a device for evaluating the analgesic effect for small animals (Incapacitance Tester manufactured by Linton Instrumentation). Mean value±standard error for each group was also calculated and the test for significant difference was carried out in the same manner as in the above 1.(4). […]

[4] = test system: experimental autoimmune neuritis (EAN) rats; assay: von Frey test in Guillain-Bareé syndrome model (EAN) rats
Method: The following experiment for checking the analgesic action of the analgesic of the present invention was conducted using the experimental autoimmune neuritis (EAN) rats which were the model animals for Guillain-Bareé syndrome having an on set of chronic pain.
The 50% reaction threshold value to mechanical stimulus of female Lewis rats of seven weeks age were measured to select a normal control group. Left hind paw of each of the anesthetized rats except the normal control group was immunized by subcutaneous administration of 0.1 mL of an emulsion prepared by equivalent mixing of a 2 mg/mL solution of a peptide derived from bovine P2 protein (SP-26) with an adjuvant complete Freund H37Ra whereupon EAN rats were prepared.
The grouping was conducted and a test drug was administered in the same manner as in (2) and (3) of the Pharmacological Test II.
A von Frey test was carried out in the same manner as in 1.(4) of the above Pharmacological Test I to measure the 50% reaction threshold value to the mechanical stimulus to each group over time. The test for significant difference was conducted and recovery rate (%) of the 50% reaction threshold value was calculated in the same manner as in (4) of the above Pharmacological Test II.

## CCCCCCC/C=C/C(=O)OC [Compound 3, Trans-2-decenoic acid methyl ester]
MIA-induced OA rats [1]; single dose
  Recovery rate of 50% reaction threshold value (%): 32.4%
MIA-induced OA rats [2]
  Recovery rate of 50% reaction threshold value (%): 23.3%

## CCCCCCC/C=C/C(=O)OCC [Compound 4, Trans-2-decenoic acid ethyl ester]
MIA-induced OA rats [1]; single dose
  Recovery rate of 50% reaction threshold value (%): 61.6%
MIA-induced OA rats [1]; single intraperitoneal dose 0.5 mg/kg, 24 days after MIA, vs onset control group, FIG. 1
  50% reaction threshold value to the mechanical stimulus: significantly high
MIA-induced OA rats [3]; repeated intraperitoneal 0.5 mg/kg for eight days, vs onset control group, FIG. 3
  weight bearing rate to the MIA-non-administered hind paw: significantly decreased
[4]; 0.25 mg/kg/day intraperitoneal once daily, After 8 days
  Recovery rate of 50% reaction threshold value (%): 100.0^[…] %
[4]; 0.25 mg/kg/day intraperitoneal once daily, After 11 days
  Recovery rate of 50% reaction threshold value (%): 40.1^[…] %
[4]; 0.25 mg/kg/day intraperitoneal once daily, After 25 days
  Recovery rate of 50% reaction threshold value (%): 21.7^[…] %
[4]; 0.25 mg/kg/day intraperitoneal once daily, After 28 days
  Recovery rate of 50% reaction threshold value (%): 24.2^[…] %
[4]; 0.50 mg/kg/day intraperitoneal once daily, After 8 days
  Recovery rate of 50% reaction threshold value (%): 98.5^[…] %
[4]; 0.50 mg/kg/day intraperitoneal once daily, After 11 days
  Recovery rate of 50% reaction threshold value (%): 35.5%
[4]; 0.50 mg/kg/day intraperitoneal once daily, After 25 days
  Recovery rate of 50% reaction threshold value (%): 38.3^[…] %
[4]; 0.50 mg/kg/day intraperitoneal once daily, After 28 days
  Recovery rate of 50% reaction threshold value (%): 38.3^[…] %
MIA-induced OA rats [2]; repeated intraperitoneal 0.5 mg/kg for eight days, after 1 and 3 hour(s) from the final administration, vs onset control group, FIG. 2
  50% reaction threshold value to the mechanical stimulus: significantly high

## CCCCCCC/C=C/C(=O)OCCC [Compound 5, Trans-2-decenoic acid propyl ester]
MIA-induced OA rats [1]; single dose
  Recovery rate of 50% reaction threshold value (%): 8.1%

## CCCCCCC/C=C/COC(=O)/C=C/CCCCCCC [Compound 16, Trans-2-decenoic acid trans-2-decenyl ester]
MIA-induced OA rats [1]; single dose
  Recovery rate of 50% reaction threshold value (%): 39.6%
MIA-induced OA rats [3]; repeated intraperitoneal 0.5 mg/kg/day, FIG. 4
  weight bearing rate to the MIA-non-administered hind paw: significantly lowered
MIA-induced OA rats [2]
  Recovery rate of 50% reaction threshold value (%): 61.4%

## C=CCCCCCCCCOC(=O)/C=C/CCCCCCC [Compound 17, Trans-2-decenoic acid trans-9-decenyl ester]
MIA-induced OA rats [1]; single dose
  Recovery rate of 50% reaction threshold value (%): 19.5%

## CCCCCCC/C=C/C(=O)OC1CCCCC1 [Compound 18, Trans-2-decenoic acid cyclohexyl ester]
MIA-induced OA rats [1]; single dose
  Recovery rate of 50% reaction threshold value (%): 20.8%
MIA-induced OA rats [2]
  Recovery rate of 50% reaction threshold value (%): 32.6%

## CCCCCC/C=C/CC(=O)OCC [Compound 20, Trans-3-decenoic acid ethyl ester]
MIA-induced OA rats [1]; single dose
  Recovery rate of 50% reaction threshold value (%): 17.7%
MIA-induced OA rats [2]
  Recovery rate of 50% reaction threshold value (%): 66.3%

## CC(C(=O)O)c1ccc(CC2CCCC2=O)cc1 (stereo not shown) [LOX, loxoprofen sodium hydrate, reference compound]
MIA-induced OA rats [1]; single oral dose 5 mg/kg, 24 days after MIA, vs onset control group, FIG. 1
  suppressive action to hyperalgesia (50% reaction threshold value): no significant suppressive action to hyperalgesia

## CCCCCCC/C=C/C(=O)O [trans-2-decenoic acid, reference compound]
MIA-induced OA rats [1]; single dose, 1 hour after administration
  suppressive effect for hyperalgesia (50% reaction threshold value before vs after 1 hour from administration): no suppressive effect for hyperalgesia

— patent publication US20130296426A1, “ANALGESIC” (NAGOYA INDUSTRIAL SCIENCE RESEARCH INSTITUTE, priority 2011, published 2013)
